Experiments:
[1] = target: T1, lipoxygenase from rabbit reticulocytes (Oryctolagus cuniculus, UniProt P12530); assay: Inhibition of the activity of lipoxygenase from rabbit reticulocytes (oxygen consumption, Clark electrode); format: biochemical; conditions: 25° C., pH 7.4, 0.53 mM linoleic acid, 15 min pre-incubation
T1 construct: The lipoxygenase from rabbit reticulocytes is obtained in electrophoretically and immunologically pure form; from tissue; host or cells: rabbit reticulocytes
T1 sequence (P12530 1-663): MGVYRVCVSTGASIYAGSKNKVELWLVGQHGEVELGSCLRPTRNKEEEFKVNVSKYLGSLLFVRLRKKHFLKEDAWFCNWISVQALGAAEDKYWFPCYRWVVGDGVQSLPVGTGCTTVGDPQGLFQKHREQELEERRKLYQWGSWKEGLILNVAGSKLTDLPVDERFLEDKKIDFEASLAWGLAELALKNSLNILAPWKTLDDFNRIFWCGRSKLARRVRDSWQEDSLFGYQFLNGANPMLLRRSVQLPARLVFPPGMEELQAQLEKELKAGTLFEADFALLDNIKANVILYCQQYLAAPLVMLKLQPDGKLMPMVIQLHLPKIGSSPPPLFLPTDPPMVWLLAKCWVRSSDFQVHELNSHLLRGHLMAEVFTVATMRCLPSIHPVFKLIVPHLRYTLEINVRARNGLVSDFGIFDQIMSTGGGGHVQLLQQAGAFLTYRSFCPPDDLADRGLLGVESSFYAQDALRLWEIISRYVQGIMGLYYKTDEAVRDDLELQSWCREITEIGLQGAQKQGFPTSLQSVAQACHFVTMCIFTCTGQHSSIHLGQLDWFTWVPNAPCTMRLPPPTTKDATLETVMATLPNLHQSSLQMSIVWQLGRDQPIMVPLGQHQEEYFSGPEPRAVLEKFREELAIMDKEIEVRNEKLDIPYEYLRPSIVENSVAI
Protocol: The lipoxygenase from rabbit reticulocytes was obtained in electrophoretically and immunologically pure form according to a technique known from the literature (S. M. Rapoport et al. Methods in Enzymology 71, 430 (1981)). The determination of lipoxygenase activity follows at 25° C. through the polarographic measurement of the oxygen consumption by means of Clark Electrode in a standardized system.
Through variation of the substance concentrations, the titration curves of the inhibition and therefrom the inhibition concentrations (I-value) of the compounds can be determined.
The testing of compounds for antiasthmatic, antiallergenic, inflammation-inhibiting and antithrombotic activity on the basis on the inhibition of the lipoxygenase reaction of the arachidonic acid cascade follows in a molecular/pharmacological test system. […] The lipoxygenase from rabbit reticulocytes is obtained in electrophoretically and immunologically pure form according to the techniques described in the literature (supra). The determination of the lipoxygenase activity follows at 25° C. through the polorographic measurement of oxygen consumption by means of a Clark-electrode in the following system: 0.1M potassiumphosphate, pH 7.4, with 0.2 percent sodium cholate and 0.53 mM linoleic acid. The enzyme concentration in the measurement preparation came to 25 nM. The compounds to be tested are dissolved in methylglycol (freshly distilled in a vacuum) and pre-incubated for 15 minutes at the measuring temperature in the absence of sodium cholate and linoleic acid. […] The enzyme reaction is started by the addition of sodium cholate and linoleic acid.

lipoxygenase from peas = assay: Inhibition of lipoxygenase from peas; format: biochemical; conditions: read-out: I50
Protocol: (§1) The inhibition of thrombocyte aggregation is likewise ascribed to the inhibition of lipoxygenase in the cells. It has thus been shown that the arachidonate-lipoxygenase activity of a microsome-free lysate of human thrombocyte concentrates is inhibited to the extent of 100% by means of 0.25 mM salicylhydroxamic acid. Moreover, it has been shown that also a series of further lipoxygenases are inhibited by means of the here described hydroxamic acids. The lipoxygenase from soybeans reacts the most insensitive, i.e. it is inhibited by means of 1 mM salicylhydroxamic acid at pH 7.4 to an extent of 60% and by means of 0.4 mM 2-hydroxy-1-napthylhydroxamic acid to an extent of 54%. In contrast, for the lipoxygenase from peas which come closer in their characteristics to human lipoxygenase, the following I50 -values are provided: salicyl hydroxamic acid, 5 μM, 2-hydroxy-1-napthylhydroxamic acid, 2 μM, 2(2'-napthoxy)-acethydroxamic acid, 2 μM. Moreover it has been shown that the formation lipoxygenase products of arachidonic acid in in vitro cultivated aorta endothelial cells of calves is hindered through 0.1 mM 2-hydroxy-1-napthylhydroxamic acids.

thrombocyte aggregation = assay: Arachidonic acid-induced thrombocyte aggregation in thrombocyte-rich plasma; format: cell-based, humans; conditions: Homo sapiens; 0.8 mM arachidonic acid; concentration giving total restraint of aggregation
Source text: Since with the new medicines the restraints of lipoxygenase has been identified as a molecular type of attack, also their influence on the thrombocyte-aggregation has been tested. The essential role of the lipoxygenase pathway for irreversibility of the thrombocyte aggregation is now known. (C. E. Dutilh et al. Prostaglandins and Medicine 6, 111 (1981)). The key role is attributed to the irreversibility of the thrombocyte aggregation in the pathogenesis of thrombotic illnesses. […] In the experiments, the thrombocyte aggregation was triggered either by means of arachidonic acid or by means of platelet activation factor (PAF-Acether).
The testing of the compounds for antithrombotic and thrombolytic activity follows in authentic cell systems of humans in vitro. Thrombocyte-rich plasma from the blood of healthy donors is obtained by centrifugation at 1,000×g. The measurement of the thrombocyte aggregation follows by means of an aggregometer based upon diffuse light scattering or light absorption of the produced cell aggregate. The thrombocyte-rich plasma is pre-incubated at 37° C. for 3 minutes with the active substance or substances; thereafter the thrombocyte aggregation is triggered through the addition of either 0.8 mM arachidonic acid or 1 μM platelet activation factor (PAF-acether). The preparations are then stirred with a velocity of 800 rpm. Indeed according to the employed active substance concentration there occurs either a strong delay or a complete inhibition of the thrombocyte aggregation.

[2] = target: T2, lipoxygenase from soybeans (Glycine max, UniProt P08170); assay: Inhibition of lipoxygenase from soybeans; format: biochemical; conditions: 0.4 mM; read-out: inhibition of soybean lipoxygenase
T2 construct: host or cells: soybeans
T2 sequence (P08170 1-839): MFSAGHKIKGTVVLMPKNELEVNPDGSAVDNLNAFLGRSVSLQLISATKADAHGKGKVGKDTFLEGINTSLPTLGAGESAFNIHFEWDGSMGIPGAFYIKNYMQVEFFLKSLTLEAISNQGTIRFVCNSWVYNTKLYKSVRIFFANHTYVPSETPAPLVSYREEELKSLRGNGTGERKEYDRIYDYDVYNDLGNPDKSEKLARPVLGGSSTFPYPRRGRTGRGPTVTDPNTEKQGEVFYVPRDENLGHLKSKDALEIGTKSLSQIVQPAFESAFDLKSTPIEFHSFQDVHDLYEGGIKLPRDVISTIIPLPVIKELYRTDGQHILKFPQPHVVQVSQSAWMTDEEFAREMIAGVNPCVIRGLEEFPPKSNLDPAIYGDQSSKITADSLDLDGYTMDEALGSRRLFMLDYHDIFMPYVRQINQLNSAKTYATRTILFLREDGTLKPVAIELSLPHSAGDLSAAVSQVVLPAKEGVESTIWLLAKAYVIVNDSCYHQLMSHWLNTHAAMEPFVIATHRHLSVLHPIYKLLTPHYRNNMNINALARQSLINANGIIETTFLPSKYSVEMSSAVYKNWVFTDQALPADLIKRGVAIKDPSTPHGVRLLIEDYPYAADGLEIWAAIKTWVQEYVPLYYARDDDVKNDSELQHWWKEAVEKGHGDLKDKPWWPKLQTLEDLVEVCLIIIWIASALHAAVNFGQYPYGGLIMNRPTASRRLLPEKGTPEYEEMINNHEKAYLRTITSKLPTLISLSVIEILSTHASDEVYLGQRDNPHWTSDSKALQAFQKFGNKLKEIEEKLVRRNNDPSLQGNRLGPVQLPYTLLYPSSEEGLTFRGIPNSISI
Protocol: as §1

[3] = system: aorta endothelial cells of calves; assay: Formation of lipoxygenase products of arachidonic acid in cultivated aorta endothelial cells; format: cell-based; conditions: 0.1 mM
Protocol: as §1

IC50 ([1]; read-out: I50): 1600 nM
IC84 ([1]; read-out: I84): 5.2 µM
IC50 (lipoxygenase from peas): 2000 nM
inhibition at 400 µM [2]: 54%
SMILES: O=C(NO)c1c(O)ccc2ccccc12 [2-hydroxy-1-naphthylhydroxanic acid, 2-hydroxy-1-naphthylhydroxamic acid]
IC100 (thrombocyte aggregation): 7 µM
formation of lipoxygenase products of arachidonic acid [3]: hindered

Reference: patent US4670469A, “Hydroxamic acid and pharmaceutical preparations containing the same” (VEB Arzneimittelwerk Dresden, priority 1983, dated 1987)
